Columns and labels:
[1] = tested on: cellular pERK in NCI-H441 (KRAS-G12V) cell-line; assay: Cell based pERK assay (HTRF), NCI-H441; settings: Homo sapiens; NCI-H441 (KRAS-G12V) cells, 2 hours incubation
Summary of the method: (§1)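 Read-out: HTRF phospho-ERK1/2 ratio (665/615 nm) after overnight lysis at RT. This followed a 2 h, 37 °C compound exposure of cells plated the day before. Signals were normalized to DMSO and a saturating known inhibitor. IC50 came from a sigmoidal dose-response fit.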

[2] = tested on: cellular pERK in ASPC-1 (KRAS G12D) cell-line; assay: Cell based pERK assay (HTRF), ASPC-1; settings: Homo sapiens, ASPC1; ASPC-1 (KRAS G12D) cells, 2 hours incubation
Summary of the method: as §1

[3] = tested on: cellular pERK in Kuramochi (WT KRAS) cell-line; assay: Cell based pERK assay (HTRF), Kuramochi; settings: Kuramochi (WT KRAS) cells, 2 hours incubation
Summary of the method: as §1

GDP-loaded KRAS-G12D = GDP-loaded KRAS-G12D (Homo sapiens (Human), UniProt P01116, G12D); assay: KRAS (GDP) biochemical TR-FRET probe displacement assay, KRAS-G12D; type: binding; settings: 2 hours
Protocol: (§2) KRAS (GDP) Biochemical Assays:
(§3) Compounds were serially diluted (1:3) in DMSO. The LabCyte ECHO Acoustic dispenser was used to pre-spot the assay plates (384-well Non-Binding Surface plates, Corning, Catalog #3824) with 50 nL of compound. 5 μL of 2× enzyme concentration was added to the pre-spotted plates and incubated for 30 minutes before adding 5 μL of 2× concentration of Eu-streptavidin and Cy-5 labelled probe (10 μL final reaction volume). The plates were incubated at room temperature for 2 hours before measuring TR-FRET ratio (665 nm/615 nm) on the Envision multimode plate reader. The ratios were normalized to a positive (saturating concentration of known inhibitor) and negative (DMSO) control and plotted against the log of compound concentration.

GDP-loaded KRAS-G12V = GDP-loaded KRAS-G12V (Homo sapiens (Human), UniProt P01116, G12V); assay: KRAS (GDP) biochemical TR-FRET probe displacement assay, KRAS-G12V; type: binding; settings: 2 hours
Protocol: as §2, §3

[4] = biological target: GDP-loaded wild-type KRAS (WT) (Homo sapiens (Human), UniProt P01116); assay: KRAS (GDP) biochemical TR-FRET probe displacement assay, WT KRAS; type: binding; settings: 2 hours
Protocol: as §2, §3

[5] = tested on: cellular pERK in MIA-PaCa-2 (KRAS-G12C) cell-line; assay: Cell based pERK assay (HTRF), MIA-PaCa-2; settings: Homo sapiens; MIA-PaCa-2 (KRAS-G12C) cells, 2 hours incubation; read-out: MIAPaCa2 pERK EC50
Summary of the method: as §1

GDP-loaded KRAS-G12C = GDP-loaded KRAS-G12C (Homo sapiens (Human), UniProt P01116, G12C); assay: KRAS (GDP) biochemical TR-FRET probe displacement assay, KRAS-G12C; type: binding; settings: 2 hours
Protocol: as §2, §3

Chain of GDP-loaded KRAS-G12V (P01116-2 other isoform, or with tags, fused parts or gaps G12V): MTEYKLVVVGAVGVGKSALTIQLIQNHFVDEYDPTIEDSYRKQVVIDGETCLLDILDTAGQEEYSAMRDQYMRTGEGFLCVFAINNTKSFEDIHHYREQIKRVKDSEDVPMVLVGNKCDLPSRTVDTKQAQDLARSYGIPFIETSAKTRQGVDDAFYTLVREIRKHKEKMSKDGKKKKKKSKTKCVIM
Chain of GDP-loaded wild-type KRAS (WT) (P01116-2 other isoform, or with tags, fused parts or gaps): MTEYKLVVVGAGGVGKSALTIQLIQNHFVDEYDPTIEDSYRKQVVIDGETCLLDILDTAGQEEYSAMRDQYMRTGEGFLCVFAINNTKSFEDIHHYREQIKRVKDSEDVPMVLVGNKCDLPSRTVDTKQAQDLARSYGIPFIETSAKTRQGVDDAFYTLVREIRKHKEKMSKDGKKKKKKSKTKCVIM
Chain of GDP-loaded KRAS-G12C (P01116-2 other isoform, or with tags, fused parts or gaps G12C): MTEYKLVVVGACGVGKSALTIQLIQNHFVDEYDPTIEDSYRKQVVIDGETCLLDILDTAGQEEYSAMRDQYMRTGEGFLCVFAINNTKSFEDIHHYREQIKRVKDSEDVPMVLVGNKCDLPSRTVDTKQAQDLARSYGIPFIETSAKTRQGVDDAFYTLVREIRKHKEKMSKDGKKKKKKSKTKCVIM
Chain of GDP-loaded KRAS-G12D (P01116-2 other isoform, or with tags, fused parts or gaps G12D): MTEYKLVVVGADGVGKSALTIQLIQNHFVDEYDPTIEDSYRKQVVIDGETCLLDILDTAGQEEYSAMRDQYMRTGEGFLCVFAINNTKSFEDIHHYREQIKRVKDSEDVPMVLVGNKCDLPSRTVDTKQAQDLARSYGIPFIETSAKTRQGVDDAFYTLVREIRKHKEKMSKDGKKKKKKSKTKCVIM

| SMILES | EC50 [1] | EC50 [2] | EC50 [3] | IC50 (GDP-loaded KRAS-G12D) | IC50 (GDP-loaded KRAS-G12V) | IC50 [4] | EC50 [5] | IC50 (GDP-loaded KRAS-G12C) |
| --- | --- | --- | --- | --- | --- | --- | --- | --- |
| C#Cc1c(F)ccc2cccc(-c3nc4c5c(nc(OC[C@@]67CCCN6[C@H](COC(=O)N6CCCCC6)CC7)nc5c3F)N3CCCOC[C@@H]3CC4)c12 [Example 16-2] | 0.56 nM | 0.62 nM | 1.99 nM | 0.24 nM | 0.2 nM | 0.17 nM | 0.28 nM | 0.19 nM |
| C#Cc1c(F)ccc2cc(O)cc(-c3nc4c5c(nc(OC[C@@]67CCCN6[C@H](COc6cc(C(F)(F)F)ncn6)CC7)nc5c3F)N3CCCOC[C@@H]3C=C4C)c12 [Example 18-1, 5-ethynyl-6-fluoro-4-((S)-1-fluoro-4-methyl-12-(((3S,7aS)-3-(((6-(trifluoromethyl)pyrimidin-4-yl)oxy)methyl)tetrahydro-1H-pyrrolizin-7a(5H)-yl)methoxy)-5a,6,9,10-tetrahydro-8H-7-oxa-3,10a,11,13-tetraazanaphtho[1,8-ab]heptalen-2-yl)naphthalen-2-ol] | 12.8 nM | 14 nM | 3.53 nM | 3.27 nM | 2.77 nM | 5.56 nM | 3.25 nM | 3.59 nM |
| C#Cc1c(F)ccc2cc(O)cc(-c3nc4c5c(nc(OC[C@@]67CCCN6[C@H](COc6cc(C(F)(F)F)cnn6)CC7)nc5c3F)N3CCCOC[C@@H]3C=C4C)c12 [Example 18-2] | 1.05 nM | 1.39 nM | 3.63 nM | 0.65 nM | 0.42 nM | 0.36 nM | 0.82 nM | 0.49 nM |

Now from value to molecule:

| EC50 [1] | EC50 [2] | EC50 [3] | IC50 (GDP-loaded KRAS-G12D) | IC50 (GDP-loaded KRAS-G12V) | IC50 [4] | EC50 [5] | IC50 (GDP-loaded KRAS-G12C) | SMILES |
| --- | --- | --- | --- | --- | --- | --- | --- | --- |
| 1.97 nM | 2.31 nM | 3.16 nM | 1.65 nM | 1.59 nM | 1.2 nM | 0.86 nM | 1.83 nM | C#Cc1c(F)ccc2cc(O)cc(-c3nc4c5c(nc(OC[C@@]67CCCN6[C@H](COC(C(F)(F)F)(C(F)(F)F)C(F)(F)F)CC7)nc5c3F)N3CCCOC[C@@H]3CC4)c12 [Example 22-4] |
| 37.1 nM | 54.6 nM | 9.83 nM | 31 nM | 12.6 nM | 30.6 nM | 6.69 nM | 34.7 nM | C#Cc1c(F)ccc2cc(O)cc(-c3nc4c5c(nc(OCC67CCCN6[C@H](COC(C(F)(F)F)C(F)(F)F)CC7)nc5c3F)N3CCCOCC3CC4)c12 (stereo partly drawn) [Example 22-7] |
| 6.08 nM | 14.6 nM | 2.15 nM | 0.36 nM | 1.37 nM | 1.61 nM | 5.57 nM | 0.67 nM | C#Cc1c(F)ccc2cc(O)cc(-c3nc4c5c(nc(OCC67CCCN6[C@H](COCC(F)(F)F)CC7)nc5c3F)N3CCCOCC3CC4)c12 (stereo partly drawn) [Example 22-8] |

From US20240383922A1, “KRAS Modulating Compounds” (Gilead Sciences, Inc., priority 2023, published 2024)
